ChEMBL document CHEMBL3885881, “DrugMatrix”
Positions of bridges follow the written chain, without caps; N, C: chain ends. Non-standard residues stand in square brackets, D forms with d. Residues, ends and D or L forms follow the SMILES beside them. *: point of attachment. Ileψ(thiazoline)Cys = CC[C@H](C)[C@H](N)C1=N[C@H](C(=O)*)CS1; dOrn = NCCC[C@@H](N)C(=O)O

Species on record: Rattus norvegicus
Assay: DrugMatrix - Regimen: Daily Repeat
Assay type: toxicity, organism-based, Sprague-Dawley
Set-up: regimen Daily Repeat, gender Male, age 6-8 weeks
Conditions: in vivo, sc, route subcutaneous, […]; for ABSOLUTE BASOPHIL / ABSOLUTE EOSINOPHIL / ABSOLUTE LYMPHOCYTE / ABSOLUTE MONOCYTE / ABSOLUTE SEGMENTED NEUTROPHIL / BASOPHIL / EOSINOPHIL / ERYTHROCYTE COUNT / HEMATOCRIT / HEMOGLOBIN / LEUKOCYTE COUNT / LYMPHOCYTE / MEAN CORPUSCULAR HEMOGLOBIN / MEAN CORPUSCULAR HEMOGLOBIN CONCENTRATION / MEAN CORPUSCULAR VOLUME / MONOCYTE / NEUTROPHIL / NUCLEATED RED BLOOD CELLS / PLATELET COUNT: tissue Blood; for ALANINE AMINOTRANSFERASE / ALBUMIN / ALKALINE PHOSPHATASE / ASPARTATE AMINOTRANSFERASE / BLOOD UREA NITROGEN / CARBON DIOXIDE / CHLORIDE / CHOLESTEROL / CREATINE PHOSPHOKINASE / CREATININE / GLUCOSE / LACTATE DEHYDROGENASE / LIPASE / PHOSPHORUS / POTASSIUM / SODIUM / TOTAL BILIRUBIN / TOTAL PROTEIN / URIC ACID: tissue Plasma
[1] = 380 mg/kg, 72 h, dose level High, time 3 day
[2] = 380 mg/kg, 120 h, dose level High, time 5 day
[3] = 72 h, dose 7.6 mg/Kg, dose level Low, time 3 day
[4] = 120 h, dose 7.6 mg/Kg, dose level Low, time 5 day

SMILES: CC[C@H](C)[C@H](N)C1=N[C@H](C(=O)N[C@@H](CC(C)C)C(=O)N[C@H](CCC(=O)O)C(=O)N[C@H](C(=O)N[C@H]2CCCCNC(=O)[C@H](CC(N)=O)NC(=O)[C@@H](CC(=O)O)NC(=O)[C@H](Cc3cnc[nH]3)NC(=O)[C@@H](Cc3ccccc3)NC(=O)[C@H]([C@@H](C)CC)NC(=O)[C@@H](CCCN)NC2=O)[C@@H](C)CC)CS1 [BACITRACIN] ({Ileψ(thiazoline)Cys}-L[dE]IK[dOrn]I[dF]H[dD]N; lactam 4-C)
- ABSOLUTE BASOPHIL [1]: 0 CELLS/uL
- ABSOLUTE EOSINOPHIL [1]: 42 CELLS/uL
- ABSOLUTE LYMPHOCYTE [1]: 8742.33 CELLS/uL
- ABSOLUTE MONOCYTE [1]: 132.67 CELLS/uL
- ABSOLUTE SEGMENTED NEUTROPHIL [1]: 3249.67 CELLS/uL
- BASOPHIL [1]: 0%
- EOSINOPHIL [1]: 0.33%
- ERYTHROCYTE COUNT [1]: 4.93 x10E6/uL
- HEMATOCRIT [1]: 31.17%
- HEMOGLOBIN [1]: 12.4 G/DL
- LEUKOCYTE COUNT [1]: 12.17 x10E3/uL
- LYMPHOCYTE [1]: 71.67%
- MEAN CORPUSCULAR HEMOGLOBIN [1]: 25.1 pg
- MEAN CORPUSCULAR HEMOGLOBIN CONCENTRATION [1]: 39.8 G/DL
- MEAN CORPUSCULAR VOLUME [1]: 63.1 fL
- MONOCYTE [1]: 1%
- NEUTROPHIL [1]: 27%
- NUCLEATED RED BLOOD CELLS [1]: 0.67 /100WBC
- PLATELET COUNT [1]: 1256.33 x10E3/uL
- ALANINE AMINOTRANSFERASE [1]: 168 u/L
- ALBUMIN [1]: 3.13 G/DL
- ALKALINE PHOSPHATASE [1]: 252 u/L
- ASPARTATE AMINOTRANSFERASE [1]: 595.67 u/L
- BLOOD UREA NITROGEN [1]: 127.67 mg/dL
- CARBON DIOXIDE [1]: 23.33 mmol/L
- CHLORIDE [1]: 90.67 MEQ/L
- CHOLESTEROL [1]: 114.33 mg/dL
- CREATINE PHOSPHOKINASE [1]: 288.33 u/L
- CREATININE [1]: 4.29 mg/dL
- GLUCOSE [1]: 146.67 mg/dL
- LACTATE DEHYDROGENASE [1]: 577.67 u/L
- LIPASE [1]: 8.67 u/L
- PHOSPHORUS [1]: 15.2 mg/dL
- POTASSIUM [1]: 7.31 MEQ/L
- SODIUM [1]: 136.43 MEQ/L
- TOTAL BILIRUBIN [1]: 0.37 mg/dL
- TOTAL PROTEIN [1]: 5.8 G/DL
- URIC ACID [1]: 1.37 mg/dL
- ABSOLUTE BASOPHIL [2]: 0 CELLS/uL
- ABSOLUTE EOSINOPHIL [2]: 0 CELLS/uL
- ABSOLUTE LYMPHOCYTE [2]: 16005 CELLS/uL
- ABSOLUTE MONOCYTE [2]: 832 CELLS/uL
- ABSOLUTE SEGMENTED NEUTROPHIL [2]: 5863 CELLS/uL
- BASOPHIL [2]: 0%
- EOSINOPHIL [2]: 0%
- ERYTHROCYTE COUNT [2]: 5.69 x10E6/uL
- HEMATOCRIT [2]: 34%
- HEMOGLOBIN [2]: 13.77 G/DL
- LEUKOCYTE COUNT [2]: 22.7 x10E3/uL
- LYMPHOCYTE [2]: 70.67%
- MEAN CORPUSCULAR HEMOGLOBIN [2]: 24.2 pg
- MEAN CORPUSCULAR HEMOGLOBIN CONCENTRATION [2]: 40.47 G/DL
- MEAN CORPUSCULAR VOLUME [2]: 59.77 fL
- MONOCYTE [2]: 3.67%
- NEUTROPHIL [2]: 25.67%
- NUCLEATED RED BLOOD CELLS [2]: 0.33 /100WBC
- PLATELET COUNT [2]: 1853.67 x10E3/uL
- ALANINE AMINOTRANSFERASE [2]: 104 u/L
- ALBUMIN [2]: 3.33 G/DL
- ALKALINE PHOSPHATASE [2]: 228.33 u/L
- ASPARTATE AMINOTRANSFERASE [2]: 305.67 u/L
- BLOOD UREA NITROGEN [2]: 48 mg/dL
- CARBON DIOXIDE [2]: 25.33 mmol/L
- CHLORIDE [2]: 96.33 MEQ/L
- CHOLESTEROL [2]: 99.67 mg/dL
- CREATINE PHOSPHOKINASE [2]: 335 u/L
- CREATININE [2]: 0.95 mg/dL
- GLUCOSE [2]: 137.67 mg/dL
- LACTATE DEHYDROGENASE [2]: 484.67 u/L
- LIPASE [2]: 9 u/L
- PHOSPHORUS [2]: 11.2 mg/dL
- POTASSIUM [2]: 6.3 MEQ/L
- SODIUM [2]: 133.53 MEQ/L
- TOTAL BILIRUBIN [2]: 0.17 mg/dL
- TOTAL PROTEIN [2]: 6.1 G/DL
- URIC ACID [2]: 2.73 mg/dL
- ABSOLUTE BASOPHIL [3]: 0 CELLS/uL
- ABSOLUTE EOSINOPHIL [3]: 0 CELLS/uL
- ABSOLUTE LYMPHOCYTE [3]: 8685.33 CELLS/uL
- ABSOLUTE MONOCYTE [3]: 135 CELLS/uL
- ABSOLUTE SEGMENTED NEUTROPHIL [3]: 1146.33 CELLS/uL
- BASOPHIL [3]: 0%
- EOSINOPHIL [3]: 0%
- ERYTHROCYTE COUNT [3]: 6.24 x10E6/uL
- HEMATOCRIT [3]: 39.37%
- HEMOGLOBIN [3]: 15.53 G/DL
- LEUKOCYTE COUNT [3]: 9.97 x10E3/uL
- LYMPHOCYTE [3]: 87.33%
- MEAN CORPUSCULAR HEMOGLOBIN [3]: 24.9 pg
- MEAN CORPUSCULAR HEMOGLOBIN CONCENTRATION [3]: 39.47 G/DL
- MEAN CORPUSCULAR VOLUME [3]: 63.13 fL
- MONOCYTE [3]: 1.33%
- NEUTROPHIL [3]: 11.33%
- NUCLEATED RED BLOOD CELLS [3]: 0 /100WBC
- PLATELET COUNT [3]: 1341.67 x10E3/uL
- ALANINE AMINOTRANSFERASE [3]: 22.67 u/L
- ALBUMIN [3]: 4.77 G/DL
- ALKALINE PHOSPHATASE [3]: 372.67 u/L
- ASPARTATE AMINOTRANSFERASE [3]: 95 u/L
- BLOOD UREA NITROGEN [3]: 17.33 mg/dL
- CARBON DIOXIDE [3]: 22 mmol/L
- CHLORIDE [3]: 105.67 MEQ/L
- CHOLESTEROL [3]: 79.33 mg/dL
- CREATINE PHOSPHOKINASE [3]: 677 u/L
- CREATININE [3]: 0.21 mg/dL
- GLUCOSE [3]: 182 mg/dL
- LACTATE DEHYDROGENASE [3]: 728.67 u/L
- LIPASE [3]: 9 u/L
- PHOSPHORUS [3]: 14.07 mg/dL
- POTASSIUM [3]: 6.5 MEQ/L
- SODIUM [3]: 151.33 MEQ/L
- TOTAL BILIRUBIN [3]: 0.2 mg/dL
- TOTAL PROTEIN [3]: 6.97 G/DL
- URIC ACID [3]: 2.53 mg/dL
- ABSOLUTE BASOPHIL [4]: 0 CELLS/uL
- ABSOLUTE EOSINOPHIL [4]: 40 CELLS/uL
- ABSOLUTE LYMPHOCYTE [4]: 10682 CELLS/uL
- ABSOLUTE MONOCYTE [4]: 80 CELLS/uL
- ABSOLUTE SEGMENTED NEUTROPHIL [4]: 864.67 CELLS/uL
- BASOPHIL [4]: 0%
- EOSINOPHIL [4]: 0.33%
- ERYTHROCYTE COUNT [4]: 4.88 x10E6/uL
- HEMATOCRIT [4]: 31.97%
- HEMOGLOBIN [4]: 12.4 G/DL
- LEUKOCYTE COUNT [4]: 11.67 x10E3/uL
- LYMPHOCYTE [4]: 90.67%
- MEAN CORPUSCULAR HEMOGLOBIN [4]: 25.37 pg
- MEAN CORPUSCULAR HEMOGLOBIN CONCENTRATION [4]: 38.97 G/DL
- MEAN CORPUSCULAR VOLUME [4]: 65.07 fL
- MONOCYTE [4]: 0.67%
- NEUTROPHIL [4]: 8.33%
- NUCLEATED RED BLOOD CELLS [4]: 0.67 /100WBC
- PLATELET COUNT [4]: 938.67 x10E3/uL
- ALANINE AMINOTRANSFERASE [4]: 50 u/L
- ALBUMIN [4]: 4.2 G/DL
- ALKALINE PHOSPHATASE [4]: 312.33 u/L
- ASPARTATE AMINOTRANSFERASE [4]: 77 u/L
- BLOOD UREA NITROGEN [4]: 17.33 mg/dL
- CARBON DIOXIDE [4]: 27 mmol/L
- CHLORIDE [4]: 103.67 MEQ/L
- CHOLESTEROL [4]: 66 mg/dL
- CREATINE PHOSPHOKINASE [4]: 146.67 u/L
- CREATININE [4]: 0.2 mg/dL
- GLUCOSE [4]: 146.33 mg/dL
- LACTATE DEHYDROGENASE [4]: 121 u/L
- LIPASE [4]: 8.67 u/L
- PHOSPHORUS [4]: 12.63 mg/dL
- POTASSIUM [4]: 6.86 MEQ/L
- SODIUM [4]: 148.7 MEQ/L
- TOTAL BILIRUBIN [4]: 0.2 mg/dL
- TOTAL PROTEIN [4]: 6 G/DL
- URIC ACID [4]: 1.4 mg/dL
